The nature of test [1]: Selectivity for rat CB1 receptor over mouse CB2 receptor.
The next test has as its target Cannabinoid receptor 1 (Rattus norvegicus, UniProt P20272). Put plainly: Displacement of [3H]CP-55940 from rat brain CB1 receptor.
The target in a further test is Cannabinoid receptor 2 (Mus musculus, UniProt P47936). Put plainly: Displacement of [3H]CP-55940 from mouse spleen CB2 receptor. In kind it is tissue-based.
Sequence of Cannabinoid receptor 2 (P47936 whole entry): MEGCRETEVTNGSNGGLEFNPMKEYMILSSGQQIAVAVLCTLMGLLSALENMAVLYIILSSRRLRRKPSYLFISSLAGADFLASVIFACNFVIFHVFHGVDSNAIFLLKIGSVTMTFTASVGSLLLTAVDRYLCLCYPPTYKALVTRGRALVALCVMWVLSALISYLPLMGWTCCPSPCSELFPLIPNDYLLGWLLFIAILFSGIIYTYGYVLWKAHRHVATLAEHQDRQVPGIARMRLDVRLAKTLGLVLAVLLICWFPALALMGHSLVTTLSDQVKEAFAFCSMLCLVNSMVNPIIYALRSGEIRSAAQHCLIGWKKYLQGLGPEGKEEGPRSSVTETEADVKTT

Sequence of Cannabinoid receptor 1 (P20272 whole entry): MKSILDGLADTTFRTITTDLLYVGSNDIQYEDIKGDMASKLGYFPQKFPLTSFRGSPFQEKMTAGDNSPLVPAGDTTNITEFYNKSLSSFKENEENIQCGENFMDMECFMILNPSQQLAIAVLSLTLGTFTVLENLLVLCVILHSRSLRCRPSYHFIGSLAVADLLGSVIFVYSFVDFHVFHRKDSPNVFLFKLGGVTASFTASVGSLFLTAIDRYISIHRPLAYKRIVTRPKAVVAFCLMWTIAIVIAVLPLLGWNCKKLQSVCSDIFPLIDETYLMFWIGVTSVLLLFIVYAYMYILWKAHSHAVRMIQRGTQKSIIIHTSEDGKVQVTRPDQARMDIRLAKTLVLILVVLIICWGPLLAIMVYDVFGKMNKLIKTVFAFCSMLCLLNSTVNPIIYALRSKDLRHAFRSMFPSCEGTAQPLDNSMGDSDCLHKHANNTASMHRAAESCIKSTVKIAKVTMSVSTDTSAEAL

As for `CCCCCC#Cc1cc(O)c2c(c1)OC(C)(C)[C@@H]1CC=C(C)C[C@@H]21`, the Ratio Ki in test [1] was determined as 0.2.
Take `CCCc1ccc(-c2cc(O)c3c(c2)OC(C)(C)[C@@H]2CC=C(C)C[C@@H]32)cc1`: the inhibition constant (Ki) on Cannabinoid receptor 1 worked out at 57.8 nM; on Cannabinoid receptor 2, 108 nM. Further, in test [1], the Ratio Ki came to 0.5.
The matching figures for `C=C(C)[C@@H]1CCC(C)=C[C@H]1c1c(O)cc(-c2ccc(C)cc2)cc1O`: 638 nM, 374 nM and 1.7.
The matching figures for `CCc1ccc(-c2cc(O)c3c(c2)OC(C)(C)[C@@H]2CC=C(C)C[C@@H]32)cc1`: 119 nM, 51.7 nM and 2.3.
On to `CC1=CC[C@@H]2[C@@H](C1)c1c(O)cc(C34CC5CC(CC(C5)C3)C4)cc1OC2(C)C`, for which the Ratio Ki in test [1] was determined as 0.1.
With `CC1=CC[C@@H]2[C@@H](C1)c1c(O)cc(C3(C#N)CCCC3)cc1OC2(C)C`, the Ki on Cannabinoid receptor 1 stood at 27.9 nM; on Cannabinoid receptor 2, 25.2 nM. In test [1], the Ratio Ki was determined as 1.1.
The matching figures for `CC1=CC[C@@H]2[C@@H](C1)c1c(O)cc(-c3cccc4ccccc34)cc1OC2(C)C`: 11.7 nM, 9.39 nM and 1.2.
For `C=C(C)[C@@H]1CCC(C)=C[C@H]1c1c(O)cc(C2(C#N)CCCCC2)cc1O`, in that order: 319 nM, 111 nM and 2.9.
For `C=C(C)[C@@H]1CCC(C)=C[C@H]1c1c(O)cc(-c2cccc3ccccc23)cc1O`, in that order: 754 nM, 222 nM and 3.4.
Consider `CC1=CC[C@@H]2[C@@H](C1)c1c(O)cc(-c3ccc(C)cc3)cc1OC2(C)C`, for which the values for the Ki on Cannabinoid receptor 1 and on Cannabinoid receptor 2 were 95.5 nM and 71.8 nM, respectively. In addition, in test [1], the Ratio Ki turned out to be 1.3.
The matching figures for `CC1=CC[C@@H]2[C@@H](C1)c1c(O)cc(C3(C#N)CCCCC3)cc1OC2(C)C`: 8.26 nM, 3.86 nM and 2.1.
Take `C=C(C)[C@@H]1CCC(C)=C[C@H]1c1c(O)cc(C2(C#N)CCCC2)cc1O`: the Ki stood at 255 nM at Cannabinoid receptor 1 and 105 nM at Cannabinoid receptor 2. Further, the Ratio Ki in test [1] stood at 2.4.
As for `CCCCCc1cc(O)c2c(c1)OC(C)(C)[C@@H]1CC=C(C)C[C@@H]21`, the Ratio Ki in test [1] came out at 1.2.

For the origin of these results see ChEMBL document CHEMBL1146054, “Structural modifications of the cannabinoid side chain towards C3-aryl and 1',1'-cycloalkyl-1'-cyano cannabinoids” (Bioorg Med Chem Lett, 2006).
